According to PubChem BioAssay AID2060901 (Molecular Pharmacology Branch, DTP, NCI, 2025):

Tested on: 422866-222-R5-J1-PDC complex spheroids viability
Test: Anticancer human tumor 422866-222-R5-J1-PDC patient-derived pancreatic adenocarcinoma cell line growth inhibition [RAS]
Conditions: for IC50: curve of first compound; for viability, T/C: stronger effect = lower value; active = viability on the fitted dose curve at most 10% of control; inactive = the rest
How it was run: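 Agents were tested in combination matrices in half-log decrements from a top concentration at or near clinical Cmax (10 microM if undetermined). Targets were multi-cell spheroids of tumour lines plus HUVEC and MSC stromal cells.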
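Also: spheroids exposed to compounds for 7 days.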
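For viability, T/C in this document: 100% = DMSO vehicle control viability.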

CCC(CC)c1cc(NC2CCC(N)C2)n2nccc2n1 (centres undefined) + C=CC(=O)N1CCN(c2nc(OCC3CCCN3C)nc3c(F)c(-c4nc(N)cc(C)c4C(F)(F)F)c(Cl)cc23)C(C)C1
< 31.6 nM: IC50 (second compound 0.00316 µM) | IC50 (second compound 0.01 µM) | IC50 (second compound 0.0316 µM) | IC50 (second compound 0.1 µM) | IC50 (second compound 0.316 µM) | IC50 (second compound 1 µM)
inactive: viability, T/C (second compound 0.00316 µM, first compound 0.0316 µM) 25.9% | viability, T/C (second compound 0.00316 µM, first compound 0.1 µM) 36.1% | viability, T/C (second compound 0.00316 µM, first compound 0.316 µM) 32.8% | viability, T/C (second compound 0.00316 µM, first compound 1 µM) 30.5% | viability, T/C (second compound 0.00316 µM, first compound 3.16 µM) 9.42% | viability, T/C (second compound 0.00316 µM, first compound 10 µM) 32.1% | viability, T/C (second compound 0.01 µM, first compound 0.0316 µM) 36.9% | viability, T/C (second compound 0.01 µM, first compound 0.1 µM) 26.8% | viability, T/C (second compound 0.01 µM, first compound 0.316 µM) 30.6% | viability, T/C (second compound 0.01 µM, first compound 1 µM) 28.9% | viability, T/C (second compound 0.01 µM, first compound 3.16 µM) 8.11% | viability, T/C (second compound 0.01 µM, first compound 10 µM) 33.1% | viability, T/C (second compound 0.0316 µM, first compound 0.0316 µM) 38.8% | viability, T/C (second compound 0.0316 µM, first compound 0.1 µM) 34.4% | viability, T/C (second compound 0.0316 µM, first compound 0.316 µM) 26.6% | viability, T/C (second compound 0.0316 µM, first compound 1 µM) 27.2% | viability, T/C (second compound 0.0316 µM, first compound 3.16 µM) 8.27% | viability, T/C (second compound 0.0316 µM, first compound 10 µM) 31.5% | viability, T/C (second compound 0.1 µM, first compound 0.0316 µM) 19.1% | viability, T/C (second compound 0.1 µM, first compound 0.1 µM) 24.1% | viability, T/C (second compound 0.1 µM, first compound 0.316 µM) 24.2% | viability, T/C (second compound 0.1 µM, first compound 1 µM) 25.6% | viability, T/C (second compound 0.1 µM, first compound 3.16 µM) 6.99% | viability, T/C (second compound 0.1 µM, first compound 10 µM) 35.6% | viability, T/C (second compound 0.316 µM, first compound 0.0316 µM) 19.3% | viability, T/C (second compound 0.316 µM, first compound 0.1 µM) 22.3% | viability, T/C (second compound 0.316 µM, first compound 0.316 µM) 27.6% | viability, T/C (second compound 0.316 µM, first compound 1 µM) 25.3% | viability, T/C (second compound 0.316 µM, first compound 3.16 µM) 7.15% | viability, T/C (second compound 0.316 µM, first compound 10 µM) 36.3% | viability, T/C (second compound 1 µM, first compound 0.0316 µM) 19.6% | viability, T/C (second compound 1 µM, first compound 0.1 µM) 22.8% | viability, T/C (second compound 1 µM, first compound 0.316 µM) 28.9% | viability, T/C (second compound 1 µM, first compound 1 µM) 27.1% | viability, T/C (second compound 1 µM, first compound 3.16 µM) 9.75% | viability, T/C (second compound 1 µM, first compound 10 µM) 41.1%

CCc1c2c(nc3ccc(O)cc13)-c1cc3c(c(=O)n1C2)COC(=O)[C@]3(O)CC + CCn1c(-c2cc(N3CCN(C)CC3)cnc2C(C)OC)c2c3cc(ccc31)-c1csc(n1)CC(NC(=O)C1CC1C)C(=O)N1CCCC(N1)C(=O)OCC(C)(C)C2
< 0.949 nM: IC50 (second compound 0.000949 µM) | IC50 (second compound 0.003 µM) | IC50 (second compound 0.00949 µM) | IC50 (second compound 0.03 µM) | IC50 (second compound 0.0949 µM) | IC50 (second compound 0.3 µM)
inactive: viability, T/C (second compound 0.000949 µM, first compound 0.000949 µM) 25.3% | viability, T/C (second compound 0.000949 µM, first compound 0.003 µM) 20.3% | viability, T/C (second compound 0.000949 µM, first compound 0.00949 µM) 21.6% | viability, T/C (second compound 0.000949 µM, first compound 0.03 µM) 19.5% | viability, T/C (second compound 0.000949 µM, first compound 0.0949 µM) 17.7% | viability, T/C (second compound 0.000949 µM, first compound 0.3 µM) 12.6% | viability, T/C (second compound 0.003 µM, first compound 0.000949 µM) 22.5% | viability, T/C (second compound 0.003 µM, first compound 0.003 µM) 17% | viability, T/C (second compound 0.003 µM, first compound 0.00949 µM) 15.4% | viability, T/C (second compound 0.003 µM, first compound 0.03 µM) 16.7% | viability, T/C (second compound 0.003 µM, first compound 0.0949 µM) 14.1% | viability, T/C (second compound 0.003 µM, first compound 0.3 µM) 8.32% | viability, T/C (second compound 0.00949 µM, first compound 0.000949 µM) 18.9% | viability, T/C (second compound 0.00949 µM, first compound 0.003 µM) 14.7% | viability, T/C (second compound 0.00949 µM, first compound 0.00949 µM) 13.8% | viability, T/C (second compound 0.00949 µM, first compound 0.03 µM) 13.2% | viability, T/C (second compound 0.00949 µM, first compound 0.0949 µM) 11.3% | viability, T/C (second compound 0.03 µM, first compound 0.000949 µM) 16.6% | viability, T/C (second compound 0.03 µM, first compound 0.003 µM) 15.6% | viability, T/C (second compound 0.03 µM, first compound 0.00949 µM) 14.6% | viability, T/C (second compound 0.03 µM, first compound 0.03 µM) 12.8% | viability, T/C (second compound 0.0949 µM, first compound 0.000949 µM) 17% | viability, T/C (second compound 0.0949 µM, first compound 0.003 µM) 15% | viability, T/C (second compound 0.0949 µM, first compound 0.00949 µM) 13.8% | viability, T/C (second compound 0.0949 µM, first compound 0.03 µM) 12.5% | viability, T/C (second compound 0.3 µM, first compound 0.000949 µM) 16.2% | viability, T/C (second compound 0.3 µM, first compound 0.003 µM) 15.7% | viability, T/C (second compound 0.3 µM, first compound 0.00949 µM) 16.8% | viability, T/C (second compound 0.3 µM, first compound 0.03 µM) 12.8%
active: viability, T/C (second compound 0.00949 µM, first compound 0.3 µM) 7.61% | viability, T/C (second compound 0.03 µM, first compound 0.0949 µM) 10% | viability, T/C (second compound 0.03 µM, first compound 0.3 µM) 6.17% | viability, T/C (second compound 0.0949 µM, first compound 0.0949 µM) 9.66% | viability, T/C (second compound 0.0949 µM, first compound 0.3 µM) 6.78% | viability, T/C (second compound 0.3 µM, first compound 0.0949 µM) 10.1% | viability, T/C (second compound 0.3 µM, first compound 0.3 µM) 5.7%
